The text below walks through data of ChEMBL document CHEMBL1201862, “PubChem BioAssay data set” (2004).

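Method: 48-hour compound exposure of cells in 96-well plates, five concentrations, linear interpolation of endpoints. At the GI50, growth is halved.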 Active and inactive are the calls of the source. Rule as the data show it: active = GI50 up to about 1.1 µM and inactive = higher.

Test systems include MDA-MB-231; NCI/ADR-RES; UO-31; DU-145; SK-MEL-2; SF-268; SW-620; A498; SF-539; SF-295; TK-10; RXF 393; UACC-257; OVCAR-5; T47D; SNB-75; KM12; CCRF-CEM; SK-MEL-5; HOP-92.
What all share (experiment): NCI tumour cell line growth inhibition, 48 h

As to `COc1ccc(C(=O)c2[nH]c(Nc3cc(C)ccn3)c(C(=S)Nc3ccccc3)c2N)cc1`, the GI50 in the test on MDA-MB-231 is 20 µM (inactive); in the test with NCI/ADR-RES it was 3.49 µM (inactive); in the test on UO-31, 21.8 µM (inactive); in the test on DU-145, 36.6 µM (inactive); in the test on SK-MEL-2 it was 10.1 µM (inactive); with SF-268 it was 21.9 µM (inactive). Also, the GI50 in the test on SW-620 was 25.3 µM (inactive); in the test on A498 it was 15.9 µM (inactive); in the test with SF-539, 18.3 µM (inactive); with SF-295, 17.9 µM (inactive); in the test with TK-10, 20 µM (inactive); in the test with RXF 393, 16.9 µM (inactive). Also, the GI50 in the test on UACC-257 is 15.9 µM (inactive); in the test on OVCAR-5, 26.1 µM (inactive); with T47D, 51.2 µM (inactive); in the test with SNB-75 it was 20.5 µM (inactive); in the test on KM12 it was 13.3 µM (inactive).

Turning to `COc1ccc(/C=C2\CCC(C)/C(=C\c3ccc(OC)c(OC)c3)C2=O)cc1OC` (stereo not given), the GI50 with MDA-MB-231 was 7.8 µM (inactive); in the test with CCRF-CEM, 2.11 µM (inactive); in the test on NCI/ADR-RES, 3.5 µM (inactive); with UO-31 it was 8.45 µM (inactive); in the test with DU-145, 3.73 µM (inactive); in the test with SK-MEL-2, 3.82 µM (inactive). In addition, the GI50 in the test with SF-268 was 6.89 µM (inactive); in the test on SW-620, 6.59 µM (inactive); with A498, 9.08 µM (inactive); in the test with SF-539, 3.42 µM (inactive); in the test on SF-295 it was 5.36 µM (inactive); in the test with SK-MEL-5 it was 3.61 µM (inactive). For the same compound, the GI50 in the test on TK-10 is 2.61 µM (inactive); in the test on RXF 393, 5.06 µM (inactive); with UACC-257, 2.88 µM (inactive); with OVCAR-5, 3.59 µM (inactive); with T47D, 3.35 µM (inactive); in the test with KM12, 2.55 µM (inactive).

With `Brc1ccc2c3c1[C@H]1O[C@H]1c1cccc(c1-3)[C@@H]1O[C@H]21`, the GI50 in the test with MDA-MB-231 is 20.6 µM (inactive); in the test with HOP-92, 20.5 µM (inactive); with NCI/ADR-RES, 22.2 µM (inactive); with UO-31, 17.3 µM (inactive); in the test on DU-145, 13 µM (inactive); in the test on SK-MEL-2, 18.3 µM (inactive). The GI50 is 17.7 µM (inactive) in the test with SF-268; 21.2 µM (inactive) with A498; 15.5 µM (inactive) in the test on SF-295; 15 µM (inactive) in the test with SK-MEL-5; 17.7 µM (inactive) in the test with TK-10; 14.8 µM (inactive) in the test with UACC-257. Besides, the GI50 was 20.2 µM (inactive) with OVCAR-5, 10.3 µM (inactive) in the test on T47D, 13.2 µM (inactive) in the test with SNB-75 and 15.2 µM (inactive) in the test on KM12.

For `Cc1ccc(S(=O)(=O)N/N=C2/CCC(C(C)(C)C)CC2Br)cc1` (stereo not given), the GI50 in the test with MDA-MB-231 was 37.9 µM (inactive); in the test on HOP-92 it was 26.1 µM (inactive); in the test on CCRF-CEM, 24.5 µM (inactive); in the test with NCI/ADR-RES it was 17.6 µM (inactive); in the test on UO-31 it was 17.2 µM (inactive); with DU-145, 42.6 µM (inactive). Besides, the GI50 in the test on SK-MEL-2 is 13.7 µM (inactive); in the test on SF-268, 36.6 µM (inactive); in the test with SW-620, 23.9 µM (inactive); in the test with A498, 48.6 µM (inactive); in the test with SF-539, 21.2 µM (inactive); in the test on SF-295 it was 34.5 µM (inactive). Besides, the GI50 in the test on SK-MEL-5 is 15.5 µM (inactive); with TK-10, 31 µM (inactive); with UACC-257, 23 µM (inactive); with OVCAR-5, 19.5 µM (inactive); in the test on T47D it was 27.4 µM (inactive); in the test on SNB-75 it was 27.4 µM (inactive). Moreover, the GI50 in the test on KM12 is 20.8 µM (inactive).

As to `O=C1NC(=S)NC(=O)C1=C/C=C/c1ccc([N+](=O)[O-])cc1`, the GI50 in the test with MDA-MB-231 was 18.2 µM (inactive); with HOP-92, 14.4 µM (inactive); with CCRF-CEM, 2.32 µM (inactive); in the test on NCI/ADR-RES, 13.1 µM (inactive); in the test with UO-31, 18.3 µM (inactive); in the test with DU-145 it was 16.1 µM (inactive). Besides, the GI50 is 16.4 µM (inactive) in the test with SK-MEL-2; 15.2 µM (inactive) with SF-268; 4.9 µM (inactive) in the test with SW-620; 13.8 µM (inactive) with SF-539; 17.3 µM (inactive) in the test with SF-295; 19.3 µM (inactive) in the test on SK-MEL-5. Also, the GI50 in the test with TK-10 is 5.45 µM (inactive); in the test on RXF 393, 13.1 µM (inactive); in the test with UACC-257 it was 12.7 µM (inactive); with OVCAR-5, 18.3 µM (inactive); in the test on T47D it was 24.9 µM (inactive); in the test with SNB-75 it was 19.2 µM (inactive). Further, in the test with KM12, the GI50 was 38 µM (inactive).

Take `CC1C2C=CC1C(c1c3ccc(=O)c(O)c-3oc3c(O)c(O)ccc13)C2C(=O)O` (stereo not given): the GI50 in the test on MDA-MB-231 was > 100 µM (inactive); in the test on HOP-92 it was 75 µM (inactive); in the test on CCRF-CEM, 1.01 µM (active); in the test on NCI/ADR-RES, > 100 µM (inactive); in the test with UO-31, > 100 µM (inactive); in the test with DU-145, > 100 µM (inactive). Besides, the GI50 is > 100 µM (inactive) in the test with SK-MEL-2; > 100 µM (inactive) with SF-268; 34.3 µM (inactive) with SW-620; > 100 µM (inactive) with A498; 43.2 µM (inactive) with SF-295; 91.6 µM (inactive) in the test on SK-MEL-5. Moreover, the GI50 with TK-10 was > 100 µM (inactive); in the test with RXF 393 it was > 100 µM (inactive); in the test on UACC-257, > 100 µM (inactive); in the test on OVCAR-5 it was > 100 µM (inactive); with T47D it was > 100 µM (inactive); in the test on KM12, 50.2 µM (inactive).

With `OC[C@H]1O[C@@H]2O[C@@](COCc3ccccc3)([C@H](OCc3ccccc3)[C@H]2O)[C@@H]1OCc1ccccc1`, the GI50 with MDA-MB-231 was 15.3 µM (inactive); in the test with HOP-92, 11.9 µM (inactive); in the test with CCRF-CEM it was 13.4 µM (inactive); in the test with NCI/ADR-RES, 17.2 µM (inactive); in the test on UO-31, 15.6 µM (inactive); with DU-145 it was 16.5 µM (inactive). In addition, the GI50 in the test on SK-MEL-2 was 16.3 µM (inactive); in the test on SF-268, 18.1 µM (inactive); in the test on SW-620, 20.2 µM (inactive); in the test on A498 it was 18.1 µM (inactive); in the test with SF-539, 17.5 µM (inactive); in the test with SF-295, 15.3 µM (inactive). Besides, the GI50 in the test with SK-MEL-5 was 15.3 µM (inactive); in the test with TK-10, 18.6 µM (inactive); in the test on UACC-257, 17.5 µM (inactive); in the test with OVCAR-5, 17.1 µM (inactive); with T47D, 14.8 µM (inactive); in the test on SNB-75, 16.2 µM (inactive). For the same compound, the GI50 in the test on KM12 was 16.7 µM (inactive).

For the compound `O=C(CN1CCCCC1)Nc1ccc2c(c1)C1Oc3ccccc3CC1CO2` (stereo not given), the GI50 in the test on MDA-MB-231 is 17.3 µM (inactive); in the test on HOP-92 it was 18.3 µM (inactive); in the test with CCRF-CEM it was 34.3 µM (inactive); in the test with NCI/ADR-RES, 23.9 µM (inactive); in the test on UO-31, 21.2 µM (inactive); in the test with DU-145, 35.2 µM (inactive). The GI50 with SK-MEL-2 is 20.2 µM (inactive); in the test with SF-268, 34.2 µM (inactive); in the test on SW-620 it was 18.8 µM (inactive); in the test on A498, 30.3 µM (inactive); with SF-539 it was 19.1 µM (inactive); with SF-295, 19.5 µM (inactive). In addition, the GI50 is 13.8 µM (inactive) with SK-MEL-5; 23.8 µM (inactive) in the test with TK-10; 19.2 µM (inactive) in the test on UACC-257; 18.7 µM (inactive) in the test on OVCAR-5; 16.4 µM (inactive) with T47D; 20.5 µM (inactive) in the test on KM12.

As for `Cc1ccc2c(c1)C(=O)c1nc(C)ccc1C2=O`, the GI50 was 13.9 µM (inactive) in the test with MDA-MB-231; 27.9 µM (inactive) with CCRF-CEM; 21.4 µM (inactive) with NCI/ADR-RES; 26.4 µM (inactive) in the test with UO-31; 32.3 µM (inactive) with DU-145; > 100 µM (inactive) in the test on SK-MEL-2. Moreover, the GI50 in the test on SF-268 was 32 µM (inactive); in the test on SW-620, 33.5 µM (inactive); in the test on A498 it was 59.3 µM (inactive); in the test on SF-539, 21.7 µM (inactive); in the test with SF-295, 38.1 µM (inactive); in the test on SK-MEL-5, 6.9 µM (inactive). Further, the GI50 was 38.3 µM (inactive) in the test with TK-10; 66.7 µM (inactive) with RXF 393; 23.6 µM (inactive) with UACC-257; 86.1 µM (inactive) with OVCAR-5; 38.3 µM (inactive) in the test on T47D; 29.8 µM (inactive) in the test with SNB-75. Moreover, in the test with KM12, the GI50 is 23.3 µM (inactive).

Take `c1cc(C2N3CCCN2CC3)ccn1` (stereo not given): the GI50 with MDA-MB-231 is > 100 µM (inactive); in the test with CCRF-CEM, 33.4 µM (inactive); with NCI/ADR-RES, 61 µM (inactive); in the test with UO-31, > 100 µM (inactive); with DU-145, > 100 µM (inactive); in the test with SK-MEL-2, > 100 µM (inactive). Also, the GI50 is 8.38 µM (inactive) in the test on SF-268; 41.8 µM (inactive) in the test with SW-620; > 100 µM (inactive) in the test on A498; > 100 µM (inactive) in the test on SF-295; 48.2 µM (inactive) in the test with SK-MEL-5; > 100 µM (inactive) in the test with TK-10. Besides, the GI50 with RXF 393, in the test with UACC-257, in the test on OVCAR-5, in the test on T47D, in the test with SNB-75 and with KM12 was > 100 µM (inactive) throughout.

For `CSc1nc2c(N)ncnc2n1C`, the GI50 with MDA-MB-231, in the test on CCRF-CEM, with NCI/ADR-RES, in the test with UO-31, in the test with DU-145 and in the test on SK-MEL-2 was > 100 µM (inactive) throughout. Further, the GI50 in the test with SF-268, in the test on SW-620, in the test with A498, in the test on SF-539, in the test on SF-295 and with SK-MEL-5 was > 100 µM (inactive) each time. Besides, the GI50 is > 100 µM (inactive) in the test on TK-10; > 100 µM (inactive) with RXF 393; > 100 µM (inactive) in the test on UACC-257; > 100 µM (inactive) with OVCAR-5; > 100 µM (inactive) with T47D; 82.8 µM (inactive) in the test with SNB-75. In the test with KM12, the GI50 is > 100 µM (inactive).
